Results on 14 compounds are retold here after publication PMC11355918, “Inhibition of Soluble Epoxide Hydrolase by Cembranoid Diterpenes from Soft Coral Sinularia maxima: Enzyme Kinetics, Molecular Docking, and Molecular Dynamics” (Marine Drugs, 2024).

Read-outs that look alike come from different tables or passages of the source.

For assay [1], the target named is T1, recombinant human sEH (Homo sapiens, UniProt P34913).
T1 sequence (P34913 1-555): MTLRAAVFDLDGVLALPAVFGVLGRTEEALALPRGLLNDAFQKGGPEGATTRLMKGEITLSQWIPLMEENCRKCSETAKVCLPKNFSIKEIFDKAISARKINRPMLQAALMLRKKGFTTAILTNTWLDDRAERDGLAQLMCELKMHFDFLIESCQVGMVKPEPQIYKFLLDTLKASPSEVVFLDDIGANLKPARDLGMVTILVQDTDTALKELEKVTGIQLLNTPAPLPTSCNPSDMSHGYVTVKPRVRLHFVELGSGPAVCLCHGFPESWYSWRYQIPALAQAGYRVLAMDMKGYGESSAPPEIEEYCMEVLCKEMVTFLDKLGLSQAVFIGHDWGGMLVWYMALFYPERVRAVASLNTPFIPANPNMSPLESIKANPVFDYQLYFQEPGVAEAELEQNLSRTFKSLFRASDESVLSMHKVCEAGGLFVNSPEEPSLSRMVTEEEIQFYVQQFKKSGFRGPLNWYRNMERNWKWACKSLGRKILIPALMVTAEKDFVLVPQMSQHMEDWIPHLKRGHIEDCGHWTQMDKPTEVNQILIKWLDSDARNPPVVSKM
The assay is described as follows: biochemical. The settings on record: PHOME substrate, 37 °C, 60 min, mean ± SD (n = 3); read-out: IC50 (sEH inhibitory effect). As for the experimental part:
Bis-Tris (B9754) was purchased from Sigma-Aldrich (St. Louis, MO, USA).
The sEH inhibition assay was performed as described in a previous study, with slight modifications. In 96-well plates, separate mixtures were prepared for each test compound, containing 130 µL of sEH in Bis-Tris buffer with HCl (pH 7.0, containing 0.1% bovine serum albumin) and 20 µL of the test compound (10 mM, diluted in DMSO). Subsequently, 50 µL of PHOME, which serves as a substrate, was added to each well. The mixtures were then incubated at 37 °C, and fluorescence was monitored using the VICTOR Nivo multimode plate reader (PerkinElmer, Waltham, MA, USA) for 60 min, with excitation and emission wavelengths of 330 nm and 460 nm, respectively. […] The inhibitory activity was calculated using the following equation:Inhibitory activity (%) = [1 − (ΔI/ΔC)] × 100%, where ΔI and ΔC are the fluorescence readings of the inhibitor and the control after 60 min, respectively. IC50 values were calculated using SigmaPlot 10.0 (Systat Software, CA, USA). Data are presented as means ± standard deviations from three independent experiments (n = 3, p < 0.05).

In assay [2] the target is T1, recombinant human sEH. In words: Enzyme kinetics of sEH inhibition (Lineweaver-Burk and Dixon plots). The class given is biochemical. The settings on record: for Ki: Determined using Dixon plots, read-out: Ki (inhibition constant); for Inhibition Type: Determined using Lineweaver-Burk plots, PHOME 0.1-0.8 mM. As for the experimental part:
The inhibition type of a compound provides insight into how it interacts with the enzyme. […] PHOME concentrations of 0.1, 0.2, 0.4, and 0.8 mM were used, along with compound 3 concentrations of 0, 15, 30, 60, and 90 µM, and compound 9 concentrations of 0, 20, 40, 60, and 100 µM. In the Lineweaver–Burk method, competitive and non-competitive inhibition is indicated by a series of straight lines intersecting at the same point on the y- and x-axes, respectively. […] In most cases, this implies that these inhibitors bind to an allosteric site on the enzyme rather than the active site, thereby preventing the enzyme from functioning regardless of the substrate concentration.
The inhibition constant (Ki) is a measure of the binding affinity of the inhibitor for the enzyme, with a lower value indicating a stronger affinity. Dixon plots were used to determine the Ki values for the compounds.
Enzyme kinetics were analyzed using Lineweaver–Burk and Dixon plots. This approach helped determine the mode of inhibition and the inhibition constant (Ki) at various substrate concentrations, both in the absence (0 μM) and presence of inhibitors. Data were plotted using Microsoft Excel 365.

The subject of a further assay is sEH. The settings on record: cited from earlier work.
[3] abbreviates: protostane-type triterpenoids from Alisma orientale, read-out: IC50 (sEH inhibition).

Broadly, the IC50 is the concentration needed to halve the response being measured. For `C=C1CC=C2C(C=C(C)CCC3OC3(C)CCC1O)OCC2(C)O` (stereo not drawn) [Compound 5, sinumaximol E], the IC50 on recombinant human sEH [1] is over 100 µM.

In general, Ki refers to a measure of affinity in units of concentration, obtained from inhibition or displacement. For `C=C(C)C1CC=C(C(=O)OC)CC(=O)CC(C)(O)C=C2C=C(C(=O)OC)C(OC)(C1)O2` (stereo not drawn) [Compound 9, sethukarailin], on recombinant human sEH [2], the Ki stood at 55 µM and the “Inhibition Type” value is given as “Non-competitive”. In addition, the 50% inhibitory concentration (IC50) at recombinant human sEH [1] was found to be 78.8 ± 2.26 µM. As to 3β-hydroxy-alisol G, the half-inhibitory concentration (IC50) with sEH (setting [3]) was 30.4 ± 2.65 µM. As to 3β-hydroxy-25-anhydro-alisol F, the half-inhibitory concentration (IC50) in the assay on sEH (setting [3]) is 10.1 ± 1.12 µM. For the compound `C=C1CCC2=C(C)COC2C=C(C)CCC(O)C(C)(O)CCC1O` (stereo not drawn) [Compound 8, sinumaximol H], the IC50 on recombinant human sEH [1] was over 100 µM.

Take `C=C(C)[C@H]1C/C=C(\C(=O)OC)CC(=O)C[C@@](C)(O)[C@@H](O)C2=CC(C(=O)OC)=C(C1)O2` [Compound 1, sinumaximol A]: on recombinant human sEH [1], the half-inhibitory concentration (IC50) was over 100 µM.

In the case of `CC1=CC2OCC(C)(O)C2=CCC(C)(O)C=CCC2(C)OC2CC1` (stereo not drawn) [Compound 6, sinumaximol F], the half-maximal inhibitory concentration (IC50) on recombinant human sEH [1] is over 100 µM.

Turning to `C=C(C)[C@@H](O)[C@@H](O)C[C@@H](C)C1=C2CC[C@H]3[C@@]4(C)CCC(=O)C(C)(C)[C@@H]4CC[C@]3(C)[C@@]2(C)CC1` [11-deoxy-25-anhydro alisol E], the IC50 with sEH (protostane-type triterpenoids, read-out: IC50 (sEH inhibitory effects)) was 5.94 ± 0.54 µM. Regarding `C[C@@H]1CC[C@]2(C(=O)O)CC[C@]3(C)C(=CC[C@@H]4[C@@]5(C)CC(=O)[C@H](O)C(C)(C)[C@@H]5CC[C@]43C)[C@@H]2[C@]1(C)O` [2-oxopomolic acid], in the assay with sEH (triterpenoid from Malus domestica, read-out: IC50 (sEH inhibitory activity)), the IC50 is 11.4 ± 2.7 µM. Consider `C=C(C)[C@H]1CCC2=C[C@@H](C[C@@]3(C)CC(=O)[C@H](CC(=O)C1)O3)OC2=O` [Compound 10, 5-epinorcembrene], for which the 50% inhibitory concentration (IC50) at recombinant human sEH [1] was over 100 µM. Still for that read-out and setting: in the case of `CC1=CC2OC(=O)C(C)=C2CCC(C)(O)C=CCC(C)(O)C(O)CC1` (stereo not drawn) [Compound 7, sinumaximol G] it was over 100 µM; in that of `C=C1CCC2(O)C(=C)COC2C=C(C)CCC2OC2(C)CCC1O` (stereo not drawn) [Compound 4, sinumaximol D], over 100 µM.

`C=C(C)C1CCC2=CC(CC(C)(O)C(O)C3=CC(C(=O)OC)=C(C1)O3)OC2=O` (stereo not drawn) [Compound 2, sinumaximol B]: the concentration for half-maximal inhibition (IC50) at recombinant human sEH [1] is over 100 µM. In the case of `C=C(C)C1CCC23OC2C(CC(C)(O)C=C2C=C(C(=O)OC)C(OC)(C1)O2)OC3=O` (stereo not drawn) [Compound 3, sinumaximol C], on recombinant human sEH [2], the Ki turned out to be 59.4 µM and the “Inhibition Type” value is “Non-competitive”. In addition, at recombinant human sEH [1], the 50% inhibitory concentration (IC50) worked out at 70.7 ± 1.44 µM.
